Laboratory results as given in patent US8927484B2, “Antiviral compounds” (Gilead Sciences, Inc., priority 2009, dated 2015).

Each compound was assayed on Replicon cells harboring H77 (genotype 1a) or Con1 (genotype 1b) HCV RNA and Renilla luciferase reporter (assay: High Throughput Replicon Assay (HTBS)). Settings: 72 h, read-out: INH @1 μM (Mean).
Type: cell-based
Method: High Throughput Replicon Assay (HTBS)
Replicon cells harboring H77 (genotype 1a) or Con1 (genotype 1b) HCV RNA and Renilla luciferase reporter were seeded in 384-well black plates at a density of 1.6×10^3 cells per well in 90 μl of DMEM culture medium, excluding G-418. Compounds were serially diluted in 100% DMSO and added to cells at a 1:225 dilution, achieving a final concentration of 0.44% DMSO in a total volume of 90 μL with a Biotek uFlow Workstation. Cell plates were incubated at 37° C. with 5% CO2 for 3 days, after which culture media were removed and cells were assayed for luciferase activity as a marker for replication level. Luciferase expression was measured using Dual-Glo luciferase assay reagents (Promega, Madison, Wis.). Briefly, 20 μL of Dual-Glo luciferase buffer was added to lyse the cells for 10 min and subsequently 20 μL of a diluted Dual-Glo Stop & Glo substrate (1:100) was added to each well. Luminescence signal was measured on a Perkin Elmer Envision Plate Reader after incubation for 10 minute. Luciferase levels were converted into percentages relative to the untreated controls (defined as 100%) and data were fit to the logistic dose response equation y=a/(1+(x/b)^c) using XLFit4 software (IDBS, Emeryville, Calif.). EC50 values were calculated from the resulting equations.
`C=C[C@@H]1C[C@]1(NC(=O)[C@@H]1C[C@@H](Oc2cc(-c3csc(C(C)C)n3)nc3c(Cl)c(OC)ccc23)[C@H]2CN(C(=O)OC(C)(C)C)[C@H](C(C)(C)C)C(=O)N21)C(=O)NS(=O)(=O)C1CC1` [Example 2] showed an inhibition at 1 µM greater than 99%.
`C=C[C@@H]1C[C@]1(NC(=O)[C@@H]1C[C@@H](Oc2cc(-c3csc(C(C)C)n3)nc3c(Cl)c(OC)ccc23)[C@H]2CN(C(=O)OC(C)(C)C)[C@H](C(C)(C)C)C(=O)N21)C(=O)NS(=O)(=O)C1(C)CC1` [Example 4] was tested, and the inhibition at 1 µM was greater than 99%.
`CC[C@@H]1C[C@]1(NC(=O)[C@@H]1C[C@@H](Oc2cc(-c3nc(C(C)C)cs3)nc3c(Cl)c(OC)ccc23)[C@H]2CN(C(=O)OC(C)(C)C)[C@H](C(C)C)C(=O)N21)C(=O)NS(=O)(=O)C1CC1` [Example 6] was tested, and the inhibition at 1 µM was greater than 99%.
Work on `C=C[C@@H]1C[C@]1(NC(=O)[C@@H]1C[C@@H](Oc2cc(-c3nc(C(C)C)cs3)nc3c(Cl)c(OC)ccc23)[C@H]2CN(C(=O)OC(C)(C)C)[C@H](C(C)C)C(=O)N21)C(=O)NS(=O)(=O)C1CC1` [Example 8] yielded an inhibition at 1 µM greater than 99%.
Compound `C=C[C@@H]1C[C@]1(NC(=O)[C@@H]1C[C@@H](Oc2cc(-c3nc(C(C)C)cs3)nc3c(Cl)c(OCCN4CCOCC4)ccc23)[C@H]2CN(C(=O)OC(C)(C)C)[C@H](C(C)C)C(=O)N21)C(=O)NS(=O)(=O)C1CC1` [Example 9] has an inhibition at 1 µM greater than 99%.
For `CC[C@@H]1C[C@]1(NC(=O)[C@@H]1C[C@@H](Oc2cc(-c3nc(C(C)C)cs3)nc3c(Cl)c(OCCN4CCOCC4)ccc23)[C@H]2CN(C(=O)OC(C)(C)C)[C@H](C(C)C)C(=O)N21)C(=O)NS(=O)(=O)C1CC1` [Example 11], the inhibition at 1 µM was greater than 50%.
`CC[C@@H]1C[C@]1(NC(=O)[C@@H]1C[C@@H](Oc2cc(-c3nc(C(C)C)cs3)nc3c(Cl)c(OCC(OC)OC)ccc23)[C@H]2CN(C(=O)OC(C)(C)C)[C@H](C(C)C)C(=O)N21)C(=O)NS(=O)(=O)C1CC1` [Example 13] showed an inhibition at 1 µM greater than 99%.
With `C=C[C@@H]1C[C@]1(NC(=O)[C@@H]1C[C@@H](Oc2cc(-c3nc(C(C)C)cs3)nc3c(Cl)c(OCCN4CCOCC4)ccc23)[C@H]2CN(S(C)(=O)=O)[C@H](C(C)C)C(=O)N21)C(=O)NS(=O)(=O)C1CC1` [Example 16] the inhibition at 1 µM was greater than 25%.
`C=C[C@@H]1C[C@]1(NC(=O)[C@@H]1C[C@@H](Oc2cc(-c3nc(C(C)C)cs3)nc3c(Cl)c(OCCN4CCOCC4)ccc23)[C@H]2CN(C(=O)NC(C)(C)C)[C@H](C(C)C)C(=O)N21)C(=O)NS(=O)(=O)C1CC1` [Example 18] showed an inhibition at 1 µM greater than 35%.
In the case of `C=C[C@@H]1C[C@]1(NC(=O)[C@@H]1C[C@@H](Oc2cc(-c3nc(C(C)C)cs3)nc3c(Cl)c(OCCN4CCOCC4)ccc23)[C@H]2CN(C(=O)CC(C)(C)C)[C@H](C(C)C)C(=O)N21)C(=O)NS(=O)(=O)C1CC1` [Example 19], the inhibition at 1 µM is reported as greater than 55%.
`C=C[C@@H]1C[C@]1(NC(=O)[C@@H]1C[C@@H](Oc2cc(-c3nc(C(C)C)cs3)nc3c(Cl)c(OCCN4CCOCC4)ccc23)[C@H]2CN(C(=O)OC3CCCC3)[C@H](C(C)C)C(=O)N21)C(=O)NS(=O)(=O)C1CC1` [Example 20] gave an inhibition at 1 µM greater than 90%.
`C=C[C@@H]1C[C@]1(NC(=O)[C@@H]1C[C@@H](Oc2cc(-c3cccc(C(C)C)n3)nc3c(Cl)c(OC)ccc23)[C@H]2CN(C(=O)OC(C)(C)C)[C@H](C(C)C)C(=O)N21)C(=O)NS(=O)(=O)C1CC1` [Example 21] was tested, and the inhibition at 1 µM was greater than 99%.
Compound `C=C[C@@H]1C[C@]1(NC(=O)[C@@H]1C[C@@H](Oc2cc(-c3nc(C(C)C)cs3)nc3c(Cl)c(OCCOC)ccc23)[C@H]2CN(C(=O)OC(C)(C)C)[C@H](C(C)(C)C)C(=O)N21)C(=O)NS(=O)(=O)C1CC1` [Example 22] has an inhibition at 1 µM greater than 99%.
`C=C[C@@H]1C[C@]1(NC(=O)[C@@H]1C[C@@H](Oc2cc(-c3nc(C(C)C)cs3)nc3c(C)c(OC)ccc23)[C@H]2CN(C(=O)OC(C)(C)C)[C@H](C(C)(C)C)C(=O)N21)C(=O)NS(=O)(=O)C1CC1` [Example 24] showed an inhibition at 1 µM greater than 99%.
With `C=C[C@@H]1C[C@]1(NC(=O)[C@@H]1C[C@@H](Oc2cc(-c3nc(C(C)C)cs3)nc3c(Cl)c(OCCN4CCOCC4)ccc23)[C@H]2CN(C(=O)OC(C)(C)C)[C@H](C(C)(C)C)C(=O)N21)C(=O)NS(=O)(=O)C1CC1` [Example 26] the inhibition at 1 µM was greater than 99%.
With `C=C[C@@H]1C[C@]1(NC(=O)[C@@H]1C[C@@H](Oc2cc(-n3ccc(C(C)C)n3)nc3c(Cl)c(OCCN4CCOCC4)ccc23)[C@H]2CN(C(=O)OC(C)(C)C)[C@H](C(C)(C)C)C(=O)N21)C(=O)NS(=O)(=O)C1CC1` [Example 28] the inhibition at 1 µM was greater than 99%.
`C=C[C@@H]1C[C@]1(NC(=O)[C@@H]1C[C@@H](Oc2cc(-n3ccc(C(C)C)n3)nc3c(Cl)c(OCCN4CCOCC4)ccc23)[C@H]2CN(C(=O)OC(C)(C)C)[C@H](C(C)C)C(=O)N21)C(=O)NS(=O)(=O)C1CC1` [Example 30] gave an inhibition at 1 µM greater than 35%.
Work on `C=C[C@@H]1C[C@]1(NC(=O)[C@@H]1C[C@@H](Oc2cc(-c3nc(C(C)C)cs3)nc3c(Cl)c(OCCN4CCOCC4)ccc23)[C@H]2CN(C(=O)OC(C)(C)C)[C@H](C(C)(C)OC)C(=O)N21)C(=O)NS(=O)(=O)C1CC1` [Example 34] yielded an inhibition at 1 µM greater than 95%.
`C=C[C@@H]1C[C@]1(NC(=O)[C@@H]1C[C@@H](Oc2cc(-c3nc(C(C)C)cs3)nc3c(Cl)c(OCCN4CCOCC4)ccc23)[C@H]2CN(C(=O)OC(C)(C)C)C(=C(C)C)C(=O)N21)C(=O)NS(=O)(=O)C1CC1` [Example 35] showed an inhibition at 1 µM greater than 35%.
With `CC[C@@H]1C[C@]1(NC(=O)[C@@H]1C[C@@H](Oc2cc(-c3nc(C(C)C)cs3)nc3c(Cl)c(OCCN4CCOCC4)ccc23)[C@H]2CN(C(=O)OC(C)(C)C)[C@H]([C@H](C)CC)C(=O)N21)C(=O)NS(=O)(=O)C1CC1` [Example 36] the inhibition at 1 µM was greater than 90%.
With `C=C[C@@H]1C[C@]1(NC(=O)[C@@H]1C[C@@H](Oc2cc(-c3nc(C(C)C)cs3)nc3c(C)c(OC)ccc23)[C@H]2CN(C(=O)OC(C)(C)C)C([C@H](C)CC)C(=O)N21)C(=O)NS(=O)(=O)C1CC1` (some centres unmarked) [Example 38] the inhibition at 1 µM was greater than 95%.
With `C=C[C@@H]1C[C@]1(NC(=O)[C@@H]1C[C@@H](Oc2cc(-c3nc(C(C)C)cs3)nc3c(Cl)c(OCCN4CCOCC4)ccc23)[C@H]2CN(C(=O)OC(C)(C)C)[C@H]([C@@H](C)CC)C(=O)N21)C(=O)NS(=O)(=O)C1CC1` [Example 40] the inhibition at 1 µM was greater than 75%.
For `CC[C@@H]1C[C@]1(NC(=O)[C@@H]1C[C@@H](Oc2cc(-c3nc(C(C)C)cs3)nc3c(Cl)c(OCCN4CCOCC4)ccc23)[C@H]2CN(C(=O)OC(C)(C)C)[C@H]([C@@H](C)CC)C(=O)N21)C(=O)NS(=O)(=O)C1CC1` [Example 42], the inhibition at 1 µM was greater than 95%.
`C=C[C@@H]1C[C@]1(NC(=O)[C@@H]1C[C@@H](Oc2cc(-c3cccc(C(C)C)n3)nc3c(Cl)c(OC)ccc23)[C@H]2CN(C(=O)OC(C)(C)C)[C@H](C(C)(C)C)C(=O)N21)C(=O)NS(=O)(=O)C1CC1` [Example 44] was tested, and the inhibition at 1 µM was greater than 99%.
For `C=C[C@@H]1C[C@]1(NC(=O)[C@@H]1C[C@@H](Oc2cc(-c3nc(C(C)C)cs3)nc3c(Cl)c(OCCN4CCOCC4)ccc23)[C@H]2CN(C(=O)OC(C)(C)C)[C@H](C(C)C)C(=O)N21)C(=O)NS(=O)(=O)C1(C)CC1` [Example 46], the inhibition at 1 µM was greater than 99%.
In the case of `C=C[C@@H]1C[C@]1(NC(=O)[C@@H]1C[C@@H](Oc2cc(-c3nc(C(C)C)cs3)nc3c(Cl)c(OCCN4CCOCC4)ccc23)[C@H]2CN(C(=O)OC(C)(C)C)[C@H]([C@H](C)CC)C(=O)N21)C(=O)NS(=O)(=O)C1CC1` [Example 49], the inhibition at 1 µM is reported as greater than 95%.
